# Data published in publication PMC5562305, “Impact of novel palmitoylated prolactin-releasing peptide analogs on metabolic changes in mice with diet-induced obesity” (PLoS ONE, 2017).
# Starred links: 1 amine or outer side, 2 acyl side, 3 side chain; linkers in the order of their positions; H or OH if unused. Residues, ends and D or L forms follow the SMILES beside them. Groups on a side chain read outwards from the residue. *: point of attachment. TTDA(Palmitoyl) = CCCCCCCCCCCCCCCC(=O)NCCCOCCOCCOCCCN*; Suc = O=C(CCC(=O)[*:2])[*:1]
# System: urinary metabolites
# Experiment: NMR-based metabolomics of urine of DIO mice
# Assay type: in vivo, C57BL/6 mice
# Design: key to DMA, Mean / DMG, Mean / MA, Mean / TMA, Mean / acetate, Mean / allantoin, Mean / carnitine, Mean / choline, Mean / cis-aconitate, Mean / creatine+creatinine, Mean / creatine, Mean / creatinine, Mean / ethanolamine, Mean / formate, Mean / galactose, Mean / glucose, Mean / glycine, Mean / lactate, Mean / succinate, Mean / vinylacetylglycine, Mean: TSA-normalized intensity of the metabolite's representative NMR signal
# Method: Urine samples for NMR-based metabolomics were collected prior to the start of the interventions and at the end of the experiment. For overnight urine collection (from 5 pm to 8 am), the mice were housed in individual metabolic cages (Tecniplast, Buguggiate, Italy) without access to food. Samples were collected with the addition of NaN3 and stored at -80°C until NMR analysis.
# The urine samples were thawed at room temperature and centrifuged at 13 684 x g for 5 min prior to the NMR experiments. A 200-μl aliquot of supernatant was diluted with 340 μl of H2O mixed with 60 μl of phosphate buffer (1.5 M KH2PO4 in D2O containing 2 mM NaN3 and 0.1% trimethylsilyl propionic acid (TSP), pH 7.4) and transferred to a 5-mm NMR tube. The NMR data were acquired with a 600 MHz Bruker Avance III spectrometer (Bruker BioSpin, Rheinstetten, Germany) equipped with a 5-mm TCI cryogenic probe head. All of the experiments were performed at 300 K. Automatic tuning, matching, shimming and adjusting of the 90° pulse length were performed for each sample.
# As mouse urine naturally contains urinary proteins, the NMR spectra were acquired using a Carr-Purcell-Meiboom-Gill (CPMG) pulse sequence with water presaturation (Bruker pulse sequence cpmgpr1d) to eliminate the strong protein background. […] For better metabolite identification, a short J-resolved experiment with presaturation (NS = 2, SW = 16 ppm, TD = 8k, number of increments = 40, SW = 78.125 Hz in the indirect dimension, and relaxation delay = 2 s) was executed for all samples. Additional two-dimensional ^1H-^1H correlation spectroscopy (COSY) and ^1H-^13C heteronuclear multiple-quantum correlation (HMQC) experiments (Bruker pulse sequences cosygpprqf and hmqcphpr) were performed for selected samples.
# The acquired data were processed using Topspin 3.2 software (Bruker BioSpin, Rheinstetten, Germany). Line broadening of 0.3 Hz was applied on free induction decays (FIDs) prior to Fourier transformation. The spectra were automatically phased, baseline corrected and referenced to the signal of TSP (0.00 ppm).
# The assignment of individual metabolites was achieved by comparing the proton spectra with the spectra of pure metabolites using Chenomx NMR Suite 7.6 (Chenomx Inc., Edmonton, AB, Canada), the HMDB database and previously published metabolomic data. The identification of metabolites was supported through J-resolved and COSY experiments and, if possible, confirmed using carbon chemical shifts extracted from the HMQC spectra.
# For quantitation of individual metabolites, the CPMG spectra were uniformly binned in the range of 0.10–10.00 ppm to 0.01-ppm intervals using AMIX software (Bruker BioSpin, Rheinstetten, Germany). This procedure reduced the dimensionality of the data, eliminated chemical shift variations and thus simplified the reproducible automatic quantification. Regions corresponding to water (4.60–4.90 ppm) and urea (5.60–6.00 ppm) were removed prior to analysis. As the dilutions of the original urine samples differed (due to the differences in water intake during urine collection), all of the spectra were normalized to the total spectral area (TSA). For each identified metabolite, one representative signal was chosen and then quantified as the sum of appropriate adjacent 0.01-ppm bins to cover the whole signal width. The metabolite concentration was expressed as the TSA-normalized intensity of the respective signal. For selection of an appropriate statistical method (parametric or non-parametric) the Lilliefors test of normality was performed. […] Metabolite alterations with a P < 0.05 were considered statistically significant. Statistical analysis was performed using Matlab software (“MATLAB version 8.6 (R2015b). Natick, Massachusetts: The MathWorks Inc., 2015.,” n.d.). […]
# [1] = urine NMR signal, DIO mice, group mean
# [2] = urine of DIO mice, NMR metabolomics, difference of analog mean vs saline mean
smiles,measurement,setting,value
CCCCCCCCCCCCCCCC(=O)NCCCOCCOCCOCCCNC(=O)CCC(=O)NCCCC[C@H](NC(=O)[C@@H](NC(=O)[C@H](CCC(=O)O)NC(=O)[C@H](CCSC)NC(=O)[C@H](CO)NC(=O)[C@H](Cc1c[nH]cn1)NC(=O)[C@H](CCCNC(=N)N)NC(=O)[C@H](Cc1c[nH]cn1)NC(=O)[C@@H](NC(=O)[C@H](CCCNC(=N)N)NC(=O)[C@H](CO)NC(=O)CCC(=O)NCCCOCCOCCOCCCNC(=O)CCCCCCCCCCCCCCC)[C@@H](C)O)[C@@H](C)CC)C(=O)N[C@H](C(=O)N1CCC[C@H]1C(=O)N[C@@H](CC(=O)O)C(=O)N[C@H](C(=O)N[C@@H](CC(N)=O)C(=O)N1CCC[C@H]1C(=O)N[C@@H](C)C(=O)N[C@@H](Cc1c[nH]c2ccccc12)C(=O)N[C@@H](Cc1ccc(O)cc1)C(=O)N[C@@H](C)C(=O)N[C@@H](CO)C(=O)N[C@@H](CCCNC(=N)N)C(=O)NCC(=O)N[C@H](C(=O)N[C@@H](CCCNC(=N)N)C(=O)N1CCC[C@H]1C(=O)N[C@H](C(=O)NCC(=O)N[C@@H](CCCNC(=N)N)C(=O)N[C@@H](Cc1ccccc1)C(N)=O)C(C)C)[C@@H](C)CC)[C@@H](C)CC)[C@@H](C)O [analog 3] ({TTDA(Palmitoyl)-Suc}-SRTHRHSMEIK([Suc-TTDA(Palmitoyl)])TPDINPAWYASRGIRPVGRF-NH2),"2-OG (2.45 ppm), Mean",[1],11.878
same,"2-OG (3.01 ppm), Mean",[1],10.469
same,"2-PY (8.33 ppm), Mean",[1],1.098
same,"3-indoxylsulfate (7.51 ppm), Mean",[1],1.344
same,"3-indoxylsulfate (7.71 ppm), Mean",[1],0.810
same,"4-PY (7.97 ppm), Mean",[1],2.017
same,"4-PY (8.55 ppm), Mean",[1],0.633
same,"DMA, Mean",[1],5.618
same,"DMG, Mean",[1],1.853
same,"MA, Mean",[1],3.016
same,"MNA (8.90 ppm), Mean",[1],0.487
same,"MNA (8.97 ppm), Mean",[1],0.470
same,"MNA (9.265 ppm), Mean",[1],0.490
same,"MNA-Nox (7.75 ppm), Mean",[1],0.972
same,"MNA-Nox (8.13 ppm), Mean",[1],0.792
same,"MNA-Nox (8.49 ppm), Mean",[1],0.511
same,"MNA-Nox (8.75 ppm), Mean",[1],0.485
same,"N-carbamoylalanine (2.38 ppm), Mean",[1],11.854
same,"N-carbamoylalanine (3.31 ppm), Mean",[1],9.499
same,"N-isovalerylglycine + oxovalerate (0.92 ppm), Mean",[1],16.056
same,"TMA, Mean",[1],11.780
same,"acetate, Mean",[1],3.429
same,"allantoin, Mean",[1],22.447
same,"carnitine, Mean",[1],6.067
same,"choline, Mean",[1],1.970
same,"cis-aconitate, Mean",[1],8.481
same,"citrate (2.55 ppm), Mean",[1],29.434
same,"citrate (2.69 ppm), Mean",[1],26.220
same,"creatine+creatinine, Mean",[1],24.904
same,"creatine, Mean",[1],7.343
same,"creatinine, Mean",[1],11.686
same,"ethanolamine, Mean",[1],8.370
same,"formate, Mean",[1],0.199
same,"fumarate, Mean",[1],0.151
same,"galactose, Mean",[1],0.578
same,"glucose, Mean",[1],3.207
same,"glycine, Mean",[1],5.874
same,"hexanoylglycine + acids (0.88 ppm), Mean",[1],15.361
same,"hippurate (7.55 ppm), Mean",[1],3.987
same,"hippurate (7.64 ppm), Mean",[1],2.057
same,"hippurate (7.84 ppm), Mean",[1],4.311
same,"lactate, Mean",[1],6.853
same,"multiplet acids (1.6 ppm), Mean",[1],12.521
same,"putrescin, Mean",[1],8.726
same,"succinate, Mean",[1],9.267
same,"taurine (3.27 ppm), Mean",[1],24.146
same,"taurine (3.43 ppm), Mean",[1],20.508
same,"trigonelline (8.84 ppm), Mean",[1],0.263
same,"trigonelline (9.13 ppm), Mean",[1],0.106
same,"vinylacetylglycine, Mean",[1],3.527
same,"2-OG (2.45 ppm), Saline/analog %",[2],0.010%
same,"2-OG (3.01 ppm), Saline/analog %",[2],0.022%
same,"2-PY (8.33 ppm), Saline/analog %",[2],-0.056%
same,"3-indoxylsulfate (7.51 ppm), Saline/analog %",[2],0.032%
same,"3-indoxylsulfate (7.71 ppm), Saline/analog %",[2],0.052%
same,"4-PY (7.97 ppm), Saline/analog %",[2],0.115%
same,"4-PY (8.55 ppm), Saline/analog %",[2],0.091%
same,"DMA, Saline/analog %",[2],0.119%
same,"N-carbamoylalanine (2.38 ppm), Saline/analog %",[2],0.101%
same,"N-carbamoylalanine (3.31 ppm), Saline/analog %",[2],0.00116%
same,"N-isovalerylglycine + oxovalerate (0.92 ppm), Saline/analog %",[2],0.108%
same,"TMA, Saline/analog %",[2],-0.031%
same,"acetate, Saline/analog %",[2],-0.087%
same,"allantoin, Saline/analog %",[2],0.112%
same,"carnitine, Saline/analog %",[2],0.019%
same,"choline, Saline/analog %",[2],-0.000203%
same,"cis-aconitate, Saline/analog %",[2],-0.045%
same,"citrate (2.55 ppm), Saline/analog %",[2],-0.096%
same,"citrate (2.69 ppm), Saline/analog %",[2],-0.120%
same,"creatine+creatinine, Saline/analog %",[2],0.092%
